The values below are quoted from earlier work in patent publication US20090306027A1 (priority 2006, published 2009).

Structures are written as SMILES. Where a name gives a salt, the structure may show the parent alone.

Consider `NNc1nncc2ccccc12` [Hydralazine hydrochloride, hydralazine hydrochloride], for which the solubility in water result is given as “soluble”. The solubility in alcohol result (alcohol) is reported as “slightly soluble”. Further, the solubility in ether entry (ether) was “very slightly soluble”.
With `O=[N+]([O-])O[C@H]1CO[C@H]2[C@@H]1OC[C@H]2O[N+](=O)[O-]` [Diluted isosorbide dinitrate, 1,4,3,6-dianhydro-D-glucitol-2,5-dinitrate], the solubility in water entry is “sparingly soluble”. Besides, under “organic solvents such as ethanol, ether and chloroform”, the “solubility in organic solvents” value is reported as “freely soluble”.
